Measurements as given in article PMC8115619, “Generation of a chemical genetic model for JAK3” (Scientific Reports, 2021).

How the values were obtained:
[1] = test system: IL-4 induced STAT6 phosphorylation in spleenocytes; assay: IL-4 induced STAT6 phosphorylation in spleenocytes; assay type: cell-based, mouse; conditions: wild type mice, inhibitor 1 h, 10 ng/ml IL-4 30 min
Method: (§1) (A) Single cell suspensions were prepared from the spleens of wild type mice. […] Cells were then stimulated with 10 ng/ml IL-4 for 30 min and the levels of phosphorylated STAT6 determined by immunoblotting. (B) As (A) except cells were stimulated with 10 ng/ml IL-2 and the levels of phosphorylated STAT5 determined. (C) CD8 T cells were expanded from the lymph nodes of wild type and JAK3 Cys905Ser knockin mice. Cells were rested in the absence of IL-2 for 60 min then incubated with the indicated concentrations of PF-06651600 for a further 30 min before stimulation with 10 ng/ml of IL-2 for 30 min. The levels of phosphorylated STAT5 and total ERK1/2 were then determined.
(§2) Cells were lysed directly into SDS sample buffer and aliquots run on 10% polyacrylamide gels using standard methods. Proteins were transferred onto nitrocellulose membranes, and specific proteins were detected by immunoblotting. […] Bands were detected using Clarity ECL reagents from BioRad and imaged on a Licor Odyssey Fc system. Quantification was carried out using Licor Image Studio software. After correction for the ERK1/2 levels to account for loading differences, percentage inhibition was calculated relative to the IL-4 stimulated condition. IC50 values were calculated using the same methods as for the in vitro IC50 values.

[2] = test system: IL-2 induced STAT5 phosphorylation in spleenocytes; assay: IL-2 induced STAT5 phosphorylation in spleenocytes; assay type: cell-based, mouse; conditions: wild type mice, inhibitor 1 h, 10 ng/ml IL-2
Method: as §1, §2

AMPK = assay: Selectivity screen AMPK; assay type: biochemical; conditions: 1 µM inhibitor, mean
ASK1 = ASK1 (Homo sapiens, UniProt Q99683); assay: Selectivity screen ASK1; assay type: biochemical; conditions: 1 µM inhibitor, mean
Aurora A = Aurora A (Homo sapiens, UniProt O14965); assay: Selectivity screen Aurora A; assay type: biochemical; conditions: 1 µM inhibitor, mean
BRSK2 = BRSK2 (Homo sapiens, UniProt Q8IWQ3); assay: Selectivity screen BRSK2; assay type: biochemical; conditions: 1 µM inhibitor, mean
Method: (§3) For the in vitro kinase assay, JAK3 (5–20 mU diluted in 50 mM Tris pH 7.5, 0.1 mM EGTA, 0.05% β-mercaptoethanol, 1 mg/ml BSA) was assayed against PDKtide ([…]) in a final volume of 25.5 µl containing 50 mM Tris pH 7.5, 0.1 mM EGTA, 0.05% β-mercaptoethanol, 100 µM substrate peptide, 10 mM magnesium acetate and 0.02 mM [33P-γ-ATP] (50–1000 cpm/pmole) and incubated for 30 min at room temperature. Assays were started by the addition of the ATP and stopped by addition of 5 µl of 0.5 M (3%) orthophosphoric acid and then harvested onto P81 Unifilter plates with a wash buffer of 50 mM orthophosphoric acid. To determine the Km for ATP, assays were run using 1, 5, 10, 20, 50, 100, 200, 400, 500 μM ATP and Km derived by non-linear regression fitting to the Michaelis–Menten equation v = Vmax[S]/(Km + [S]). IC50 values for inhibitors via non-linear regression using a parameter model: Y = Bottom + (Top–Bottom)/(1 + (IC50/X)^HillSlope). Non-linear regression was carried out in Prism (version 8). In vitro selectivity screen was carried out as described previously.

BTK = BTK (Homo sapiens, UniProt Q06187); assay: Selectivity screen BTK; assay type: biochemical; conditions: 1 µM inhibitor, mean
EF2K = EF2K (Homo sapiens, UniProt O00418); assay: Selectivity screen EF2K; assay type: biochemical; conditions: 1 µM inhibitor, mean
Method: as §3

EPH-A2 = EPH-A2 (Homo sapiens, UniProt P29317); assay: Selectivity screen EPH-A2; assay type: biochemical; conditions: 1 µM inhibitor, mean
Method: as §3

IKKe = IKKe (Homo sapiens, UniProt Q14164); assay: Selectivity screen IKKe; assay type: biochemical; conditions: 1 µM inhibitor, mean
Method: as §3

IR = IR (Homo sapiens, UniProt P06213); assay: Selectivity screen IR; assay type: biochemical; conditions: 1 µM inhibitor, mean
Method: as §3

IRAK1 = IRAK1 (Homo sapiens, UniProt P51617); assay: Selectivity screen IRAK1; assay type: biochemical; conditions: 1 µM inhibitor, mean
Method: as §3

MAP4K3 = MAP4K3 (Homo sapiens, UniProt Q8IVH8); assay: Selectivity screen MAP4K3; assay type: biochemical; conditions: 1 µM inhibitor, mean
Method: as §3

MARK2 = MARK2 (Homo sapiens, UniProt Q7KZI7); assay: Selectivity screen MARK2; assay type: biochemical; conditions: 1 µM inhibitor, mean
Method: as §3

MPSK1 = MPSK1 (Homo sapiens, UniProt O75716); assay: Selectivity screen MPSK1; assay type: biochemical; conditions: 1 µM inhibitor, mean
Method: as §3

PHK = assay: Selectivity screen PHK; assay type: biochemical; conditions: 1 µM inhibitor, mean
Method: as §3

PKD1 = PKD1 (Homo sapiens, UniProt Q15139); assay: Selectivity screen PKD1; assay type: biochemical; conditions: 1 µM inhibitor, mean
Method: as §3

ROCK 2 = ROCK 2 (Homo sapiens, UniProt O75116); assay: Selectivity screen ROCK 2; assay type: biochemical; conditions: 1 µM inhibitor, mean
Method: as §3

S6K1 = S6K1 (Homo sapiens, UniProt P23443); assay: Selectivity screen S6K1; assay type: biochemical; conditions: 1 µM inhibitor, mean
Method: as §3

SIK2 = SIK2 (Homo sapiens, UniProt Q9H0K1); assay: Selectivity screen SIK2; assay type: biochemical; conditions: 1 µM inhibitor, mean
Method: as §3

TAO1 = TAO1 (Homo sapiens, UniProt Q7L7X3); assay: Selectivity screen TAO1; assay type: biochemical; conditions: 1 µM inhibitor, mean
Method: as §3

TESK1 = TESK1 (Homo sapiens, UniProt Q15569); assay: Selectivity screen TESK1; assay type: biochemical; conditions: 1 µM inhibitor, mean
Method: as §3

TSSK1 = TSSK1 (Homo sapiens, UniProt Q9BXA7); assay: Selectivity screen TSSK1; assay type: biochemical; conditions: 1 µM inhibitor, mean
Method: as §3

TTBK2 = TTBK2 (Homo sapiens, UniProt Q6IQ55); assay: Selectivity screen TTBK2; assay type: biochemical; conditions: 1 µM inhibitor, mean
Method: as §3

VEG-FR = VEG-FR (Homo sapiens, UniProt P17948); assay: Selectivity screen VEG-FR; assay type: biochemical; conditions: 1 µM inhibitor, mean
Method: as §3

Sequence of IRAK1 (P51617 whole entry): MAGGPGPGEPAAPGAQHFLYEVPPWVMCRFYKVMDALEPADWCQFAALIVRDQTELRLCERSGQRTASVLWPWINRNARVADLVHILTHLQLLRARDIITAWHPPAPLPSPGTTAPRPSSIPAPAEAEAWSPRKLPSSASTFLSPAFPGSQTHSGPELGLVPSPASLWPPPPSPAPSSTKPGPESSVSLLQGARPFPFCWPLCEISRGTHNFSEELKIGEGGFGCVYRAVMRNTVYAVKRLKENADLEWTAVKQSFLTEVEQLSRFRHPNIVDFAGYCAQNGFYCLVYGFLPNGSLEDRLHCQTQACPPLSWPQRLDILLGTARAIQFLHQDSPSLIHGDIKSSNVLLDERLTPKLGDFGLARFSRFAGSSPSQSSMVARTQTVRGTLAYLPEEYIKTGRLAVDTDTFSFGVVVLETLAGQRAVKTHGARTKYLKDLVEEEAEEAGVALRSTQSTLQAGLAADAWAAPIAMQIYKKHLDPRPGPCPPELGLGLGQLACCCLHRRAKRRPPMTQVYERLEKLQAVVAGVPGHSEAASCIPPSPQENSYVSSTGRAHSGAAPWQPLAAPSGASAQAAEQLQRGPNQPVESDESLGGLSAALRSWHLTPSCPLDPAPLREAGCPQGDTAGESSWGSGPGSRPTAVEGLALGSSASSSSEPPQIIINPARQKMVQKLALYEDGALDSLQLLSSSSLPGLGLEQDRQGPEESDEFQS
Sequence of IKKe (Q14164 whole entry): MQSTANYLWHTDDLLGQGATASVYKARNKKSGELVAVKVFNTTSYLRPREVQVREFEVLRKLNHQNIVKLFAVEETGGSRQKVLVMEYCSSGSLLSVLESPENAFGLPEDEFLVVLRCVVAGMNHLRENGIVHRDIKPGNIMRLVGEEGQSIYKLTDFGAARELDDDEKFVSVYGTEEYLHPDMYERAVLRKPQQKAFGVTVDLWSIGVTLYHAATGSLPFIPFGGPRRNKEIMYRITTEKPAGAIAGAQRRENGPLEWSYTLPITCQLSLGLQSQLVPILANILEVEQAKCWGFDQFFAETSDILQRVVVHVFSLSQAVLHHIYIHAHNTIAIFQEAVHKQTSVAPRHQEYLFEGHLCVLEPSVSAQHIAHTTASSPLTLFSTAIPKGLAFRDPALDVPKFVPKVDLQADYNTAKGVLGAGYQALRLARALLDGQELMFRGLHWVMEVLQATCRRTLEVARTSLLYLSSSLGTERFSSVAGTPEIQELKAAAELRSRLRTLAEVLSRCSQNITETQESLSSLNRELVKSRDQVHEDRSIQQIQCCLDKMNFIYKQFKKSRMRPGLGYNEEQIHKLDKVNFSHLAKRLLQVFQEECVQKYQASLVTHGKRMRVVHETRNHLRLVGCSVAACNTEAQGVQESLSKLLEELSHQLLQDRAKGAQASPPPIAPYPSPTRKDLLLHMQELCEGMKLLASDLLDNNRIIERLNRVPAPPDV
Sequence of ROCK 2 (O75116 whole entry): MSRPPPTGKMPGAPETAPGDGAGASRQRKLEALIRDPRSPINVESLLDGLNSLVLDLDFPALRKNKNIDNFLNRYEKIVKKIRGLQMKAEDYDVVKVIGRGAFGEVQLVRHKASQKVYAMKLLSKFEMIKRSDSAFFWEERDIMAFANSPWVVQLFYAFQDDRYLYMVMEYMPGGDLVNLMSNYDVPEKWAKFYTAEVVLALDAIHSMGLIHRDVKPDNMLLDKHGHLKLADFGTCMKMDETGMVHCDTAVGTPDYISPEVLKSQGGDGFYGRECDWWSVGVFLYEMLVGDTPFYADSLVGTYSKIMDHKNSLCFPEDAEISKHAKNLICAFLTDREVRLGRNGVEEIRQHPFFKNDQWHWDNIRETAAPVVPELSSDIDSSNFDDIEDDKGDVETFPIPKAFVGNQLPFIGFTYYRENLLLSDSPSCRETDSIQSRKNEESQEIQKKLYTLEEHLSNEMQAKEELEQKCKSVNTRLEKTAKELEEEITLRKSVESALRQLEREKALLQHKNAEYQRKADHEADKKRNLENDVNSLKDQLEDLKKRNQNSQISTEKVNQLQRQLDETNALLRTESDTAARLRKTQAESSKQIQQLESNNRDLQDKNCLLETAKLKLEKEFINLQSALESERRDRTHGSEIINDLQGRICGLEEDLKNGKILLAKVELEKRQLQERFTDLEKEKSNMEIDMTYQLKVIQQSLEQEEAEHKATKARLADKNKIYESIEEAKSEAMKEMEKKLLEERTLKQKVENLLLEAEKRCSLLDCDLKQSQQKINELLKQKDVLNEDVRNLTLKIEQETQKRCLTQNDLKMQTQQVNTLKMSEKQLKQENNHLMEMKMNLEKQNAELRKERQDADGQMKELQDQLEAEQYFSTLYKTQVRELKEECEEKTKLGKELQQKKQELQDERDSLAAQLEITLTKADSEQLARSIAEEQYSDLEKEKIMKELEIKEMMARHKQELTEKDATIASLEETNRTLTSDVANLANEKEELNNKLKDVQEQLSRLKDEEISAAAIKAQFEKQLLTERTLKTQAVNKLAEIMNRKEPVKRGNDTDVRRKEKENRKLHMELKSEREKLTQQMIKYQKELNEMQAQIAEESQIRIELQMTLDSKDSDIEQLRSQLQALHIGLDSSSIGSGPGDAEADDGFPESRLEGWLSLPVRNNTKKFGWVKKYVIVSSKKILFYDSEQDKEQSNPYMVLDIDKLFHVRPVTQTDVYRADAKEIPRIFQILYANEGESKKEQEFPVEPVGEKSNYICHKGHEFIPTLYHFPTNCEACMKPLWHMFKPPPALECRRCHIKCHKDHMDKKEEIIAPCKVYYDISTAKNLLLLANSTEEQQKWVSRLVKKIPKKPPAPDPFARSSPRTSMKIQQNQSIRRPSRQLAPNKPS
Sequence of S6K1 (P23443 whole entry): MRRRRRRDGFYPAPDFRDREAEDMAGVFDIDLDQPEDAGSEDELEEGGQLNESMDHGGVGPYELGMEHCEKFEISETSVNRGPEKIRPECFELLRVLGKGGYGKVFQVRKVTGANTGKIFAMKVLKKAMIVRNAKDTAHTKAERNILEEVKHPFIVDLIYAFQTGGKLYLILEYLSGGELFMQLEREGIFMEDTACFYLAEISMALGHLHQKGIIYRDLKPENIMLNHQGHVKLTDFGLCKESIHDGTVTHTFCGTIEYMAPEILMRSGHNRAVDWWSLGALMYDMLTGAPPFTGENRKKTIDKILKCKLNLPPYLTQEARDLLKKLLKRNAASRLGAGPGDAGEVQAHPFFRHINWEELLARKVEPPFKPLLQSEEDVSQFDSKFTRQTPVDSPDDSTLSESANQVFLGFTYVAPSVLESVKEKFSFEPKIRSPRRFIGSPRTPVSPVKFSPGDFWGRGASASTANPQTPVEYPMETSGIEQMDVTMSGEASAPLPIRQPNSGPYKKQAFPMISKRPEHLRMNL
Sequence of TTBK2 (Q6IQ55 whole entry): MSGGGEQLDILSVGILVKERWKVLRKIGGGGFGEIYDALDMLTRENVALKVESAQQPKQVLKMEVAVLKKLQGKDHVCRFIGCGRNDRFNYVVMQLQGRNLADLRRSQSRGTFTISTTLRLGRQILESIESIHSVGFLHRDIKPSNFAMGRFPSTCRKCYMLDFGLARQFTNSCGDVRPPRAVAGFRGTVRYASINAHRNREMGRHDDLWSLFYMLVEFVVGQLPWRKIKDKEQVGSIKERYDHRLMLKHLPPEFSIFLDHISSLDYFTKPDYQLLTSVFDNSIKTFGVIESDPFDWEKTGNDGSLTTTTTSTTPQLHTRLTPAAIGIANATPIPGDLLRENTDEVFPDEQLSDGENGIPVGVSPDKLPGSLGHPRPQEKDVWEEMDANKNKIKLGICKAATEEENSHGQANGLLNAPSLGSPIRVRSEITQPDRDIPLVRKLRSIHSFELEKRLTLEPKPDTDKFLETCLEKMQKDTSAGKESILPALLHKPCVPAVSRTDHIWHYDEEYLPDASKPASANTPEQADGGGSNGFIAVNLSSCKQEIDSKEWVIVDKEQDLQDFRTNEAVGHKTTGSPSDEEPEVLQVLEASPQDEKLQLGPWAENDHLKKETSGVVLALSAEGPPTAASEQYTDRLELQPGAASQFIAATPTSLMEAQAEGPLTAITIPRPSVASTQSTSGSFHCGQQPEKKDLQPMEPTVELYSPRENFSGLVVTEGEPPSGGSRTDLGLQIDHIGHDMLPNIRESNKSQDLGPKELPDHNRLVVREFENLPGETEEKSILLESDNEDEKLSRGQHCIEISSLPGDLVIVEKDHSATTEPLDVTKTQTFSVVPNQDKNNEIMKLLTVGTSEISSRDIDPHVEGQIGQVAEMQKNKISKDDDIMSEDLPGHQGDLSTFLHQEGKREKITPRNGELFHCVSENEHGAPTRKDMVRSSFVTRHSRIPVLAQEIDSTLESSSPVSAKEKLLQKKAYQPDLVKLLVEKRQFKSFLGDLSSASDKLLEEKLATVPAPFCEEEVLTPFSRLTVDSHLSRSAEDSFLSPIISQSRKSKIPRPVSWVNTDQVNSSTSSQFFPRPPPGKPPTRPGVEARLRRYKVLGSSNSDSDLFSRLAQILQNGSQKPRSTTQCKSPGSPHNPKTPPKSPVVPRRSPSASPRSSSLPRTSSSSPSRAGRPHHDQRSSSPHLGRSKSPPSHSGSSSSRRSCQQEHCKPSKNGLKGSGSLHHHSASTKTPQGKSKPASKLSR
Sequence of TSSK1 (Q9BXA7 whole entry): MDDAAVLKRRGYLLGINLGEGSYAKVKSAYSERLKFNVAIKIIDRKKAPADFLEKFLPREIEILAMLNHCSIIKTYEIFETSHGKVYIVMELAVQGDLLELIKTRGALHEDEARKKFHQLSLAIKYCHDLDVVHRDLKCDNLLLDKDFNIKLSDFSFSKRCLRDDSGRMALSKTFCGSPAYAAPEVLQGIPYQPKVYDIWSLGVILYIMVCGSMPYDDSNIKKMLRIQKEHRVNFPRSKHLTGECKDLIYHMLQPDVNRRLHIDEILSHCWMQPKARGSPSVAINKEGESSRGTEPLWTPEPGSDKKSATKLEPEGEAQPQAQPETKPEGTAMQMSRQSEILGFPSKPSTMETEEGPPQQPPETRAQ

Structure (SMILES) | block of IL-4 induced STAT6 phosphorylation in spleenocytes [1] | block of IL-2 induced STAT5 phosphorylation in spleenocytes [2] | activity remaining in the presence of the inhibitor: AMPK (AMPK) | activity remaining in the presence of the inhibitor: ASK1 (ASK1) | activity remaining in the presence of the inhibitor: Aurora A (Aurora A) | activity remaining in the presence of the inhibitor: BRSK2 (BRSK2) | activity remaining in the presence of the inhibitor: BTK (BTK) | activity remaining in the presence of the inhibitor: EF2K (EF2K) | activity remaining in the presence of the inhibitor: EPH-A2 (EPH-A2) | activity remaining in the presence of the inhibitor: IKKe (IKKe) | activity remaining in the presence of the inhibitor: IR (IR) | activity remaining in the presence of the inhibitor: IRAK1 (IRAK1) | activity remaining in the presence of the inhibitor: MAP4K3 (MAP4K3) | activity remaining in the presence of the inhibitor: MARK2 (MARK2) | activity remaining in the presence of the inhibitor: MPSK1 (MPSK1) | activity remaining in the presence of the inhibitor: PHK (PHK) | activity remaining in the presence of the inhibitor: PKD1 (PKD1) | activity remaining in the presence of the inhibitor: ROCK 2 (ROCK 2) | activity remaining in the presence of the inhibitor: S6K1 (S6K1) | activity remaining in the presence of the inhibitor: SIK2 (SIK2) | also measured
C=CC(=O)N1C[C@H](Nc2ncnc3[nH]ccc23)CC[C@@H]1C [PF-06651600, 1-((2S,5R)-5-((7H-Pyrrolo[2,3-d]pyrimidin-4-yl)amino)-2-methylpiperidin-1-yl)prop-2-en-1-one, reference compound] | able to block | able to block | – | – | – | – | – | – | – | – | – | – | – | – | – | – | – | – | – | – | –
C=CC(=O)Nc1cccc(CNc2nc(Nc3ccc(N4CCN(C)CC4)cc3OC)ncc2Cl)c1 [TL6-144] | – | – | 91 | 108 | 94 | 90 | 37 | 95 | 72 | 100 | 11 | 81 | 83 | 84 | 91 | 40 | 46 | 83 | 90 | 58 | activity remaining in the presence of the inhibitor: TAO1 (TAO1): 99; activity remaining in the presence of the inhibitor: TESK1 (TESK1): 99; activity remaining in the presence of the inhibitor: TSSK1 (TSSK1): 34; activity remaining in the presence of the inhibitor: TTBK2 (TTBK2): 94; activity remaining in the presence of the inhibitor: VEG-FR (VEG-FR): 39
C=CC(=O)Nc1cccc(CNc2nc(Nc3ccc(N4CCOCC4)cc3)ncc2Cl)c1 [TL8-52] | able to block | able to block | 80 | 93 | 13 | 87 | 44 | 105 | 87 | 34 | 15 | 54 | 55 | 37 | 98 | 78 | 86 | 93 | 87 | 31 | activity remaining in the presence of the inhibitor: TAO1 (TAO1): 91; activity remaining in the presence of the inhibitor: TESK1 (TESK1): 91; activity remaining in the presence of the inhibitor: TSSK1 (TSSK1): 57; activity remaining in the presence of the inhibitor: TTBK2 (TTBK2): 106; activity remaining in the presence of the inhibitor: VEG-FR (VEG-FR): 6
